Experimental findings from US20250082763A1, “COMBINATION DRUG FOR TREATING TRIPLE-NEGATIVE BREAST CANCER” (HINOVA PHARMACEUTICALS INC., priority 2022, published 2025) are described below.

Where two headings read alike, the source gives them in different places. Bounds are passed on as bounds.

What all share (type): cell-based
The subject of assay [1] is MDA-MB-453 cells. The assay is described as follows: Inhibition of proliferation of MDA-MB-453 cells (CCK-8 or CTG, 7-10 days). Conditions: co-incubation 7-10 days, CCK-8 or CTG, read-out: IC50 values against MDA-MB-453 cells. Here is the method:
Triple negative breast cancer MDA-MB-453 cells in logarithmic growth stage were inoculated into a 96-well plate at a concentration of 4×10^3 cells/well, and then incubated in an incubator at 37° C., 5% CO2, and saturated humidity for 24 h or 48 h. To the negative control well, was added RPMI 1640 cell medium containing 10% fetal bovine serum in the same volume as the drug. After cultured for 24 h or 48 h, to the 96-well plate, were added AR PROTACs compounds 162, 177, 230, 259, 279, 281, 282, 325, 357, 400, ARV-110, ARV-766 and AR inhibitor HC-1119, respectively. The concentrations of compounds 177, 230, 259, 279, 281, 282, 325, 357, 400, ARV-110, and ARV-766 are 0 μM, 0.002 μM, 0.005 μM, 0.014 μM, 0.041 μM, 0.123 μM, 0.370 μM, 1.111 μM, 3.333 μM or 10 μM; while the concentrations of HC-1119 are 0 μM, 1.23 μM, 3.70 μM, 11.11 μM, 33.33 μM or 100 μM.
(§1) After addition of the drugs and co-incubation for 7-10 days, 10 μL of CCK-8 was added to each well, and then the plate was further cultured for 2 h. The absorbance value (OD) of each well was measured using a microplate reader at a wavelength of 450 nm. The survival rate was calculated using Prism software, the relative survival rate=(OD value of drug well/OD value of control well)×100%. Alternatively, 100 μL of medium was removed from each well, and then 50 μL of CTG was added. The plate was shaken in the dark for 2 min, allowed to stand for 10 min, and then measured using a microplate reader in Luminescence mode. Prism software was used to calculate the survival rate, the relative survival rate=(the RLU value of drug well/the RLU value of control well)×100%.

The subject of the next assay is MDA-MB-453. The assay is described as follows: Antiproliferation, CellTiter-Glo, 5 days, MDA-MB-453. Conditions: MDA-MB-453, AR+ TNBC. Here is the method:
(§2) For MDA-MB-453, MFM-223, SUM159PT, MDA-MB-468, and HCC1937, 4,000, 3,000, 1,000, 3,000, and 3,000 cells were plated per well in 96-well microplates (Corning Inc), respectively. Cells were treated with serial dilutions of tested compounds with the maximum working concentration of 10 μM. Cell survival was measured 5 days later using a CellTiter-Glo luminescent cell viability assay kit (Promega Corporation). Luminescence was recorded by FLUOstar Omega microplate reader (BMG Labtech). Half maximal inhibitory concentration (IC50) was determined with GraphPad Prism using baseline correction (by normalizing to dimethyl sulfoxide (DMSO) control)
A general note: In ATP-based viability assays light output follows the ATP content of the culture.

A further assay concerns SUM159PT. The assay is described as follows: Antiproliferation, CellTiter-Glo, 5 days, SUM159PT. The conditions noted are these: AR+ TNBC. On the procedure: Cells were treated with serial dilutions of tested compounds with the maximum working concentration of 10 μM. Cell survival was measured 5 days later using a CellTiter-Glo luminescent cell viability assay kit (Promega Corporation). Luminescence was recorded by FLUOstar Omega microplate reader (BMG Labtech). Half maximal inhibitory concentration (IC50) was determined with GraphPad Prism using baseline correction (by normalizing to dimethyl sulfoxide (DMSO) control)

The next assay relates to MFM-223. The assay is described as follows: Antiproliferation, CellTiter-Glo, 5 days, MFM-223. Conditions: MFM-223, AR+ TNBC. Here is the method:
as §2

Another assay deals with MDA-MB-468. The assay is described as follows: Antiproliferation, CellTiter-Glo, 5 days, MDA-MB-468. Conditions: MDA-MB-468, AR− TNBC. On the procedure: as §2
A further assay concerns HCC1937. The assay is described as follows: Antiproliferation, CellTiter-Glo, 5 days, HCC1937. The conditions noted are these: HCC1937, AR− TNBC. Here is the method: as §2
Assay [2] relates to MDA-MB-453 cells. The assay is described as follows: Combination with PI3K inhibitor Alpelisib, proliferation of MDA-MB-453 cells, Combination Index. The conditions noted are these: molar ratio to Alpelisib 1:27-9:1, 7 days. Here is the method:
Triple negative breast cancer MDA-MB-453 cells in logarithmic growth stage were inoculated into a 96-well plate at a concentration of 4×10^3 cells/well, and then incubated in an incubator at 37° C., 5% CO2, and saturated humidity for 24 h. To the negative control wells, were added RPMI 1640 cell culture medium containing 10% fetal bovine serum in the same volume as the drug. After cultured for 24 h, to the 96-well plate, were sequentially added AR PROTACs compounds 279, 281, 282, ARV-110, ARV-766 and PI3K inhibitor Alpelisib, respectively.
as §1, with “7” for “7-10”

Assay [3] concerns MDA-MB-453 cells. The assay is described as follows: Combination with PI3K inhibitor Idelalisib, proliferation of MDA-MB-453 cells, Combination Index. Conditions: molar ratio to Idelalisib 1:270-1:3.333, 7-10 days. Here is the method: Triple negative breast cancer MDA-MB-453 cells in logarithmic growth stage were inoculated into a 96-well plate at a concentration of 4×10^3 cells/well, and then incubated in an incubator at 37° C., 5% CO2, and saturated humidity for 24 h. To the negative control wells, were added RPMI 1640 cell culture medium containing 10% fetal bovine serum in the same volume as the drug. After cultured for 24 h, to the 96-well plate, were sequentially added AR PROTACs compounds 279, 281, 282, ARV-110, ARV-766 and PI3K inhibitor Idelalisib, respectively.
as §1, with “adding” for “addition of”, “co-incubating” for “co-incubation”

Assay [4] relates to MDA-MB-453 cells. The assay is described as follows: Combination with PI3K inhibitor Duvelisib, proliferation of MDA-MB-453 cells, Combination Index. The conditions noted are these: molar ratio to Duvelisib 1:30-1:1.111, 7-10 days. Here is the method:
Triple negative breast cancer MDA-MB-453 cells in logarithmic growth stage were inoculated into a 96-well plate at a concentration of 4×10^3 cells/well, and then incubated in an incubator at 37° C., 5% CO2, and saturated humidity for 24 h. To the negative control wells, were added RPMI 1640 cell culture medium containing 10% fetal bovine serum in the same volume as the drug. After cultured for 24 h, to the 96-well plate, were sequentially added AR PROTACs compounds 279, 281, 282, ARV-110 and PI3K inhibitor Duvelisib, respectively.
as §1, with “adding” for “addition of”, “co-incubating” for “co-incubation”

Assay [5] relates to MDA-MB-453 cells. The assay is described as follows: Combination with chemotherapeutic drug Paclitaxel, proliferation of MDA-MB-453 cells, Combination Index. The conditions noted are these: molar ratio to Paclitaxel 20:1-5000:1, 7 days. On the procedure:
Triple negative breast cancer MDA-MB-453 cells in logarithmic growth stage were inoculated into a 96-well plate at a concentration of 4×10^3 cells/well, and then incubated in an incubator at 37° C., 5% CO2, and saturated humidity for 24 h. To the negative control wells, were added RPMI 1640 cell culture medium containing 10% fetal bovine serum in the same volume as the drug. After cultured for 24 h, to the 96-well plate, were sequentially added AR PROTACs compounds 279, 281, 282, ARV-110 and chemotherapeutic drug Paclitaxel, respectively.
as §1, with “adding” for “addition of”, “co-incubating” for “co-incubation”, “7” for “7-10”

With `COc1cc(O[C@H]2C(C)(C)[C@H](NC(=O)c3ccc(N4CCC(CN5CCN(c6ccc(C(=O)N[C@H]7CCC(=O)NC7=O)c(F)c6)CC5)CC4)cc3)C2(C)C)ccc1C#N` [ARV-766], the IC50 was at most 2 µM with MDA-MB-453 cells [1] (Homo sapiens); 1.1 µM in the assay on MDA-MB-453 (Homo sapiens, 120 h); 0.38 µM with SUM159PT (Homo sapiens, SUM-159-PT, 120 h); 5.4 µM with MFM-223 (Homo sapiens, 120 h); above 10 µM in the assay with MDA-MB-468 (Homo sapiens, 120 h); above 10 µM in the assay with HCC1937 (Homo sapiens, 120 h). Besides, the “effect of the combination with Alpelisib on inhibiting proliferation (CI<1 = synergistic)” value in the assay with MDA-MB-453 cells [2] was “synergistic effect”. Also, the “effect of the combination with Idelalisib on inhibiting proliferation (CI<1 = synergistic)” value with MDA-MB-453 cells [3] was “synergistic effect”.
`N#Cc1ccc(O[C@H]2CC[C@H](NC(=O)c3ccc(N4CCC5(CCN(CC6CCN(c7cc8c(cc7F)C(=O)N(C7CCC(=O)NC7=O)C8=O)CC6)C5)C4)nn3)CC2)cc1Cl` (stereo partly shown) [Compound 162]: the half-maximal inhibitory concentration (IC50) with MDA-MB-453 cells [1] (Homo sapiens) was above 2 µM.
The same measure, in the same setting: the same measure for `N#Cc1ccc(O[C@H]2CC[C@H](NC(=O)c3cnc(N4C[C@@H]5[C@@H](CN6CCN(c7ccc8c(c7)C(=O)N(C7CCC(=O)NC7=O)C8=O)CC6)[C@@H]5C4)cn3)CC2)cc1Cl` (stereo partly shown) [Compound 177]: above 2 µM; for `N#Cc1ccc(O[C@H]2CC[C@H](NC(=O)c3ccc(N4CCC(CN5CCC6(CC5)CN(c5ccc7c(c5)C(=O)N(C5CCC(=O)NC5=O)C7=O)C6)CC4)nn3)CC2)cc1Cl` (stereo partly shown) [Compound 230]: above 2 µM.
Take `N#Cc1ccc(O[C@H]2CC[C@H](NC(=O)c3ccc(N4CC5CN(CC6CCN(c7cc8c(cc7F)C(=O)N(C7CCC(=O)NC7=O)C8=O)CC6)CC5C4)nn3)CC2)cc1Cl` (stereo partly shown) [Compound 259]: the 50% inhibitory concentration (IC50) in the assay with MDA-MB-453 cells [1] (Homo sapiens) is above 2 µM.
With `N#Cc1ccc(O[C@H]2CC[C@H](NC(=O)c3ccc(N4CCC(N5CCC6(CC5)CN(c5ccc7c(c5)C(=O)N(C5CCC(=O)NC5=O)C7=O)C6)CC4)nn3)CC2)cc1Cl` (stereo partly shown) [Compound 281], in the assay on MDA-MB-453 cells [1] (Homo sapiens), the IC50 is at most 2 µM. The “effect of the combination with Alpelisib on inhibiting proliferation (CI<1 = synergistic)” value with MDA-MB-453 cells [2] is “synergistic effect”. Further, the “effect of the combination with Duvelisib on inhibiting proliferation (CI<1 = synergistic)” value in the assay with MDA-MB-453 cells [4] was “synergistic effect”. The “effect of the combination with Idelalisib on inhibiting proliferation (CI<1 = synergistic)” value in the assay with MDA-MB-453 cells [3] was “synergistic effect”. Further, in the assay on MDA-MB-453 cells [5], the “effect of the combination with Paclitaxel on inhibiting proliferation (CI<1 = synergistic)” value is “synergistic effect”.
With `N#Cc1ccc(O[C@H]2CC[C@H](NC(=O)c3ccc(N4CC5(CCN(CC6CCN(c7ccc8c(c7)C(=O)N(C7CCC(=O)NC7=O)C8=O)CC6)CC5)C4)nn3)CC2)cc1Cl` (stereo partly shown) [Compound 282], the 50% inhibitory concentration (IC50) with MDA-MB-453 cells [1] (Homo sapiens) was at most 2 µM. In the assay with MDA-MB-453 cells [2], the “effect of the combination with Alpelisib on inhibiting proliferation (CI<1 = synergistic)” value was “synergistic effect”. In addition, the “effect of the combination with Duvelisib on inhibiting proliferation (CI<1 = synergistic)” value with MDA-MB-453 cells [4] is on record as “synergistic effect”. The “effect of the combination with Idelalisib on inhibiting proliferation (CI<1 = synergistic)” value in the assay on MDA-MB-453 cells [3] is “synergistic effect”. The “effect of the combination with Paclitaxel on inhibiting proliferation (CI<1 = synergistic)” value in the assay with MDA-MB-453 cells [5] was “synergistic effect”.
With `CC1(C)[C@H](Oc2ccc(C#N)c(Cl)c2)C(C)(C)[C@H]1N1Cc2nc(C#C[C@H]3CC[C@H](N4CCN(c5ccc6c(c5)C(=O)N(C5CCC(=O)NC5=O)C6=O)CC4)CC3)ccc2C1=O` (stereo partly shown) [Compound 325], in the assay on MDA-MB-453 cells [1] (Homo sapiens), the IC50 is above 2 µM.
Same read-out and setting: the same measure for `CC1(C)[C@H](Oc2ccc(C#N)c(Cl)c2)C(C)(C)[C@@H]1N1Cc2nc(C#C[C@H]3C[C@H](N4CCN(c5cc6c(cc5F)C(=O)N(C5CCC(=O)NC5=O)C6=O)CC4)C3)ccc2C1=O` (stereo partly shown) [Compound 357]: at most 2 µM; for `COc1cc(O[C@H]2C(C)(C)[C@H](N3Cc4nc(C#C[C@H]5CC[C@H](N6CCN(c7ccc8c(c7)C(=O)N(C7CCC(=O)NC7=O)C8=O)CC6)CC5)ccc4C3=O)C2(C)C)ccc1C#N` (stereo partly shown) [Compound 400]: at most 2 µM.
As for `CNC(=O)c1ccc(N2C(=S)N(c3ccc(C#N)c(C(F)(F)F)c3)C(=O)C2(C)C)cc1F` [HC-1119], the IC50 in the assay with MDA-MB-453 cells [1] is above 2 µM; with MDA-MB-453, above 10 µM; in the assay on SUM159PT, above 10 µM; in the assay with MFM-223, above 10 µM; in the assay on MDA-MB-468, above 10 µM; with HCC1937, above 10 µM.

For orientation: IC50 means the concentration at which inhibition is half-maximal.
